According to US11839212B2, “Synergistic pesticidal compositions and methods for delivery of insecticidal active ingredients” (0903608 B.C. Ltd., priority 2018, dated 2023):
Like-named read-outs stand apart in the source and are kept apart here.

What was measured:
Assay in all cases: Synergistic Growth Inhibition Assay (MIC and FIC index, 96-well, resazurin)
Assay type in all cases: cell-based
Alternaria solani = settings: for MIC: Alternaria solani, read-out: MIC (B); for MIC (A): Compound A alone
Procedure: (§1) In some embodiments, the synergistic action between the pesticidal active ingredient, and the at least one C6-C10 (or alternatively C11 or C12) saturated or unsaturated aliphatic acid components of the pesticidal compositions according to embodiments of the present disclosure was tested using a Synergistic Growth Inhibition Assay, which is derived from and related to a checkerboard assay as is known in the art for testing of combinations of antimicrobial agents. In the Synergistic Growth Inhibition Assay used in accordance with some embodiments of the present disclosure, multiple dilutions of combinations of pesticidal active ingredient and at least one C6-C10 saturated or unsaturated aliphatic acid agents are tested in individual cells for inhibitory activity against a target pest or pathogenic organism. In one such embodiment, the combinations of pesticidal active ingredient and C6-C10 (or alternatively C11 or C12) saturated or unsaturated aliphatic acid agents may preferably be tested in decreasing concentrations. In a further such embodiment, the combinations of pesticidal active ingredient and C6-C10 (or alternatively C11 or C12) saturated or unsaturated aliphatic acid agents may be tested in increasing concentrations. These multiple combinations of the pesticidal active ingredient and at least one C6-C10 (or alternatively C11 or C12) saturated or unsaturated aliphatic acid agents may be prepared in 96-well microtiter plates. In one such embodiment, the Synergistic Growth Inhibition Assay then comprises rows which each contain progressively decreasing concentrations of the pesticidal active ingredient and one or more C6-C10 (or alternatively C11 or C12) saturated or unsaturated aliphatic acid agents to test for the MIC of the agents in combination at which growth of the target pest or pathogen is inhibited. Thus, each well of the microtiter plate is a unique combination of the two agents, at which inhibitory efficacy of the combination against the target pest or pathogen can be determined.
(§2) In one embodiment according to the present disclosure, for each row of microtiter cells in the Synergistic Growth Inhibition Assay, the FIC index is calculated from the lowest concentration of the pesticidal active ingredient and one or more C6-C10 saturated or unsaturated aliphatic acid agents necessary to inhibit growth of a target pest or pathogen. The FIC of each component is derived by dividing the concentration of the agent present in that well of the microtiter plate by the minimal inhibitory concentration (MIC) needed of that agent alone to inhibit growth of the target pest or pathogen. The FIC index is then the sum of these values for both agents in that well of the microtiter plate. […] Fractional inhibitory concentration indices may then used as measure of synergy. […] When the FIC index is equal to 1, the combination is additive.
(§3) Then, serial dilutions of these initial compositions in successive wells in the row of the microtiter plate were used to assay the pesticidal composition under the same conditions to determine the concentration of the composition combining the two agents corresponding to the microtiter well in which growth inhibition of the target pest or organism ceases.
A culture of the representative fungal pathogen, namely Fusarium oxysporum, Botrytis cinerea, or Sclerotinia sclerotiorum, for example, is grown to exponential phase in potato dextrose broth (PDB).

Botrytis cinerea = settings: for MIC: Botrytis cinerea, 48 h
Procedure: as §1, §2, §3
(§4) Similarly to as described above, Resazurin was used as an indicator of growth or inhibition of growth of Botrytis cinerea in the exemplary Synergistic Growth Inhibition Assay. In addition to the color change of the resazurin, an optical or visual examination of the microtiter well may also be made to additionally determine the presence of growth or inhibition of growth of the Botrytis cinerea.

Fusarium oxysporum = settings: for MIC: Fusarium oxysporum
Procedure: as §1, §2, §3
Resazurin dye (also known as Alamar blue dye) was used as an indicator to determine the presence of growth or inhibition of growth of Fusarium oxysporum in the wells of the 96 well microtiter plates used in the exemplary Synergistic Growth Inhibition Assay. In addition to the color change of the resazurin dye in the presence of growth of the Fusarium oxysporum, an optical or visual examination of the microtiter well may also be made to additionally determine the presence of growth or inhibition of growth of the Fusarium oxysporum.

Sclerotinia sclerotiorum = settings: for MIC: Sclerotinia sclerotiorum
Procedure: as §1, §2, §3
as §4, with “Sclerotinia sclerotiorum” for “Botrytis cinerea”, “Sclerotinia sclerotiorum.” for “Botrytis cinerea.”

[1] = Compound B alone, 7 days incubation
[2] = Table 51, Compound B alone, 48 hours incubation, read-out: MIC (B)
[3] = Table 59, Compound B alone, 48 hours incubation, read-out: MIC (B)
[4] = Table 20B, Compound A alone, incubation 7 days, read-out: MIC (A)
[5] = Table 56, Compound B alone, 48 hours incubation, read-out: MIC (B)
[6] = Table 19, Compound A alone, incubation 7 days, read-out: MIC (A)
[7] = Table 23, Compound A alone, incubation 48 hours, read-out: MIC (A)
[8] = 48 h, Table 15B, Compound A alone, incubation 48 hours, read-out: MIC (A)

CCCCC(O)C(=O)O (stereo not shown) [2-Hydroxyhexanoic acid]
MIC (Alternaria solani; [1]): 2500 µg/mL | MIC (Botrytis cinerea; [2]): 1250 µg/mL

CCCCCCC(C)CC(=O)O (stereo not shown) [3-Methylnonanoic acid]
MIC (Alternaria solani; [1]): 62.5 µg/mL

CO/C=C(/C(=O)OC)c1ccccc1COc1cccc(C(F)(F)F)n1 [Picoxystrobin, reference compound]
MIC (A) (Alternaria solani; 7 days incubation): 0.5 mg/mL | MIC (A) (Alternaria solani; Table 60, 7 days incubation): 0.5 mg/mL | MIC (A) (Botrytis cinerea; Table 51, Compound A alone, 48 hours incubation): 0.25 mg/mL | MIC (A) (Botrytis cinerea; Table 52, Compound A alone, 48 hours incubation): 0.25 mg/mL

O=C(O)CCCCCCCCCCCO [12-Hydroxydodecanoic acid]
MIC (Alternaria solani): 100 µg/mL | MIC (Botrytis cinerea; read-out: MIC (B), Table 51, Compound B alone, 48 hours incubation): 100 µg/mL | MIC (Botrytis cinerea; read-out: MIC (B), Table 55, Compound B alone, 48 hours incubation): 100 µg/mL | MIC (Botrytis cinerea; read-out: MIC (B), Table 56, Compound B alone, 48 hours incubation): 100 µg/mL | MIC (Botrytis cinerea; read-out: MIC (B), Table 59, Compound B alone, 48 hours incubation): 50 µg/mL

CCC(C)CCC(=O)O (stereo not shown) [4-Methylhexanoic acid]
MIC (Alternaria solani; [1]): 312 µg/mL | MIC (Botrytis cinerea; [2]): 78.1 µg/mL | MIC (Botrytis cinerea; [3]): 78.1 µg/mL

N#Cc1c(Cl)c(Cl)c(Cl)c(C#N)c1Cl [Chlorothalonil, reference compound]
MIC (Fusarium oxysporum; 48 h, Table 12, Compound A alone, incubation 48 hours, read-out: MIC (A)): 0.125 µg/mL | MIC (Sclerotinia sclerotiorum; [4]): 0.0312 µg/mL | MIC (Sclerotinia sclerotiorum; Table 36, Compound A alone, 7 days incubation, read-out: MIC (A)): 0.0312 µg/mL | MIC (Botrytis cinerea; Table 46, Compound A alone, 48 hours incubation, read-out: MIC (A)): 0.0176 µg/mL

CCC/C=C/C(=O)O [Trans-2-hexenoic acid, trans-2-hexenoic acid]
MIC (Fusarium oxysporum; 24 h, Table 1, Compound B alone, 24 hour incubation, read-out: MIC(B)): 312 µg/mL | MIC (Fusarium oxysporum; 24 h, Table 2, Compound B alone, 24 hour incubation, read-out: MIC (B)): 312 µg/mL | MIC (Sclerotinia sclerotiorum; Table 33, Compound B alone, 7 days incubation, read-out: MIC (B)): 156 µg/mL | MIC (Botrytis cinerea; Table 43, Compound B alone, 48 hours incubation, read-out: MIC (B)): 78.1 µg/mL | MIC (Botrytis cinerea; Table 44, Compound B alone, 48 hours incubation, read-out: MIC (B)): 39.1 µg/mL | MIC (Botrytis cinerea; Table 45, Compound B alone, 48 hours incubation, read-out: MIC (B)): 156 µg/mL | MIC (Botrytis cinerea; Table 52, Compound B alone, 48 hours incubation, read-out: MIC(B)): 156 µg/mL | MIC (Botrytis cinerea; [5]): 312 µg/mL

CO/C=C(/C(=O)OC)c1ccccc1Oc1cc(Oc2ccccc2C#N)ncn1 [Azoxystrobin, reference compound]
MIC (A) (Fusarium oxysporum; Table 11, Compound A alone, incubation 48 hours): 0.075 mg/mL | MIC (A) (Fusarium oxysporum; Table 15B, Compound A alone, incubation 48 hours): 0.15 mg/mL | MIC (A) (Fusarium oxysporum; Table 28, Compound A alone, 48 hours incubation): 0.15 mg/mL | MIC (A) (Sclerotinia sclerotiorum; Table 17, Compound A alone, incubation 7 days): 0.15 mg/mL | MIC (A) (Sclerotinia sclerotiorum; Table 20B, Compound A alone, incubation 7 days): 0.075 mg/mL | MIC (A) (Sclerotinia sclerotiorum; Table 35, Compound A alone, 7 days incubation): 0.15 mg/mL | MIC (A) (Botrytis cinerea; Table 23, Compound A alone, incubation 48 hours): 0.075 mg/mL | MIC (A) (Botrytis cinerea; Table 45, Compound A alone, 48 hours incubation): 0.075 mg/mL

CCCCCCCC(O)CC(=O)O (stereo not shown) [3-Hydroxydecanoic acid, 3-hydroxydecanoic acid]
MIC (Fusarium oxysporum; 48 h, Table 10, Compound B alone, incubation 48 hours, read-out: MIC (B)): 250 µg/mL | MIC (Fusarium oxysporum; 48 h, Table 12, Compound B alone, incubation 48 hours, read-out: MIC (B)): 250 µg/mL | MIC (Fusarium oxysporum; 48 h, Table 13, Compound B alone, incubation 48 hours, read-out: MIC (B)): 250 µg/mL | MIC (Fusarium oxysporum; 48 h, Table 15B, Compound B alone, incubation 48 hours, read-out: MIC (B)): 250 µg/mL | MIC (Sclerotinia sclerotiorum; Table 16, Compound B alone, incubation 7 days, read-out: MIC (B)): 125 µg/mL | MIC (Sclerotinia sclerotiorum; Table 20B, Compound B alone, incubation 7 days, read-out: MIC (B)): 62.5 µg/mL | MIC (Botrytis cinerea; [2]): 62.5 µg/mL | MIC (Botrytis cinerea; [5]): 125 µg/mL | MIC (Botrytis cinerea; [3]): 125 µg/mL

Fc1ccc([C@]2(Cn3cncn3)O[C@H]2c2ccccc2Cl)cc1 (racemic) [Epoxiconazole, reference compound]
MIC (Fusarium oxysporum; 48 h, Table 31, Compound A alone, 48 hours incubation, read-out: MIC (A)): 30 µg/mL | MIC (Sclerotinia sclerotiorum; [6]): 30 µg/mL | MIC (Sclerotinia sclerotiorum; [4]): 30 µg/mL | MIC (Sclerotinia sclerotiorum; Table 40, Compound A alone, 7 days incubation, read-out: MIC (A)): 30 µg/mL | MIC (Botrytis cinerea; [7]): 30 µg/mL | MIC (Botrytis cinerea; Table 49, Compound A alone, 48 hours incubation, read-out: MIC (A)): 30 µg/mL

CC(C)(C)C(O)(CCc1ccc(Cl)cc1)Cn1cncn1 (stereo not shown) [Tebuconazole, reference compound]
MIC (Fusarium oxysporum; 48 h, Table 15A, Compound A alone, incubation 48 hours, read-out: MIC (A)): 255 µg/mL | MIC (Fusarium oxysporum; [8]): 225 µg/mL | MIC (Fusarium oxysporum; 48 h, Table 32, Compound A alone, 48 hours incubation, read-out: MIC (A)): 225 µg/mL | MIC (Sclerotinia sclerotiorum; [6]): 225 µg/mL | MIC (Sclerotinia sclerotiorum; [4]): 56.2 µg/mL | MIC (Sclerotinia sclerotiorum; Table 41, Compound A alone, 7 days incubation, read-out: MIC (A)): 112 µg/mL | MIC (Sclerotinia sclerotiorum; Table 42, Compound A alone, incubation 7 days, read-out: MIC (A)): 112 µg/mL | MIC (Botrytis cinerea; [7]): 112 µg/mL | MIC (Botrytis cinerea; Table 25, Compound A alone, 48 hours incubation, read-out: MIC (A)): 112 µg/mL | MIC (Botrytis cinerea; Table 50, Compound A alone, 48 hours incubation, read-out: MIC (A)): 112 µg/mL

COC(=O)N(OC)c1ccccc1COc1ccn(-c2ccc(Cl)cc2)n1 [Pyraclostrobin, pyraclostrobin, reference compound]
MIC (Fusarium oxysporum; 24 h, Table 1, Compound A alone, 24 hour incubation, read-out: MIC(A)): 15.4 µg/mL | MIC (Fusarium oxysporum; 48 h, Table 10, Compound A alone, incubation 48 hours, read-out: MIC (A)): 15 µg/mL | MIC (Fusarium oxysporum; [8]): 15 µg/mL | MIC (Fusarium oxysporum; 48 h, Table 27, Compound A alone, 48 hours incubation, read-out: MIC (A)): 15 µg/mL | MIC (Sclerotinia sclerotiorum; Table 16, Compound A alone, incubation 7 days, read-out: MIC (A)): 7.5 µg/mL | MIC (Sclerotinia sclerotiorum; [4]): 3.75 µg/mL | MIC (Sclerotinia sclerotiorum; Table 33, Compound A alone, 7 days incubation, read-out: MIC (A)): 7.5 µg/mL | MIC (Sclerotinia sclerotiorum; Table 34, Compound A alone, 7 days incubation, read-out: MIC (A)): 3.75 µg/mL | MIC (Botrytis cinerea; Table 21, Compound A alone, incubation 48 hours, read-out: MIC (A)): 1.9 µg/mL | MIC (Botrytis cinerea; [7]): 3.75 µg/mL | MIC (Botrytis cinerea; Table 43, Compound A alone, 48 hours incubation, read-out: MIC (A)): 1.88 µg/mL | MIC (Botrytis cinerea; Table 44, Compound A alone, 48 hours incubation, read-out: MIC (A)): 1.88 µg/mL

CC1COC(Cn2cncn2)(c2ccc(Oc3ccc(Cl)cc3)cc2Cl)O1 (stereo not shown) [Difenoconazole, reference compound]
MIC (Fusarium oxysporum; 48 h, Table 14, Compound A alone, incubation 48 hours, read-out: MIC (A)): 51 µg/mL | MIC (Fusarium oxysporum; [8]): 51 µg/mL | MIC (Fusarium oxysporum; 48 h, Table 30, Compound A alone, 48 hours incubation, read-out: MIC (A)): 51 µg/mL | MIC (Sclerotinia sclerotiorum; Table 20A, Compound A alone, incubation 7 days, read-out: MIC (A)): 12.8 µg/mL | MIC (Sclerotinia sclerotiorum; [4]): 25.5 µg/mL | MIC (Sclerotinia sclerotiorum; Table 38, Compound A alone, 7 days incubation, read-out: MIC (A)): 25.5 µg/mL | MIC (Botrytis cinerea; Table 24, Compound A alone, 48 hours incubation, read-out: MIC (A)): 51 µg/mL
